Data on 26 molecules can be found in patent US9771337B2, “Neprilysin inhibitors” (THERAVANCE BIOPHARMA R&D IP, LLC, priority 2011, dated 2017).

Some results are limits rather than exact numbers.

For this test, the target named is T1, human NEP (Homo sapiens, UniProt P08473).
T1 construct: purchased R&D Systems, Minneapolis, Minn; 1182-ZN
T1 sequence (P08473 whole entry): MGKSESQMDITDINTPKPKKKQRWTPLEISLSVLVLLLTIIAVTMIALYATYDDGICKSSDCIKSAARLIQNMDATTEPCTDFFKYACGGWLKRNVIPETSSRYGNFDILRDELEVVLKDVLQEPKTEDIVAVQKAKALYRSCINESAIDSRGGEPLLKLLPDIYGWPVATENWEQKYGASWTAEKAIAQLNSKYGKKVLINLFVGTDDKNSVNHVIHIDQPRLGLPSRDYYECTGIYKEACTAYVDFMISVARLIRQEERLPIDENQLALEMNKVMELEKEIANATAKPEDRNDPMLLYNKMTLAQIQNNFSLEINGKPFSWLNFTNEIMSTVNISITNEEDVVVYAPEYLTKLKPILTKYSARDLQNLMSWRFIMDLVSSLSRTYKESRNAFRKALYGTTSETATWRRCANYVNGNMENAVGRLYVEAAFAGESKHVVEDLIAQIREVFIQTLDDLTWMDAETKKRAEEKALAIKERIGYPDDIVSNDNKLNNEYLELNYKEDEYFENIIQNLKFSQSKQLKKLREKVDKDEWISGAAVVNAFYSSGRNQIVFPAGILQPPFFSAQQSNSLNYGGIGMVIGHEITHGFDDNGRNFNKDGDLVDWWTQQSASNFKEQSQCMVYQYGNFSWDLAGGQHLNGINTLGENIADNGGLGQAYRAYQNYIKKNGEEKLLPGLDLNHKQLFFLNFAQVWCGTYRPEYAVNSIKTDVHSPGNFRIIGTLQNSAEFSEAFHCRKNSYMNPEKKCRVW
Briefly: In vitro enzyme inhibition assay, inhibitor potency at human NEP. In kind it is biochemical. To be noted: pKi values at human NEP; recombinant human NEP, fluorogenic peptide substrate 10 μM, 37° C. The method, then: The inhibitory activities of compounds at human and rat neprilysin (EC 3.4.24.11; NEP) and human angiotensin converting enzyme (ACE) were determined using in vitro assays as described below.
Recombinant human NEP and recombinant human ACE were obtained commercially (R&D Systems, Minneapolis, Minn., catalog numbers 1182-ZN and 929-ZN, respectively). The fluorogenic peptide substrate Mca-D-Arg-Arg-Leu-Dap-(Dnp)-OH (Medeiros et al. (1997) Braz. J. Med. Biol. Res. 30:1157-62; Anaspec, San Jose, Calif.) and Abz-Phe-Arg-Lys(Dnp)-Pro-OH (Araujo et al. (2000) Biochemistry 39:8519-8525; Bachem, Torrance, Calif.) were used in the NEP and ACE assays respectively.
The assays were performed in 384-well white opaque plates at 37° C. using the fluorogenic peptide substrates at a concentration of 10 μM in Assay Buffer (NEP: 50 mM HEPES, pH 7.5, 100 mM NaCl, 0.01% polyethylene glycol sorbitan monolaurate (Tween-20), 10 μM ZnSO4; ACE: 50 mM HEPES, pH 7.5, 100 mM NaCl, 0.01% Tween-20, 1 μM ZnSO4).
Test compounds were assayed over the range of concentrations from […] to 20 μM. Test compounds were added to the enzymes and incubated for 30 minute at 37° C. prior to initiating the reaction by the addition of substrate. Reactions were terminated after 20 minutes of incubation at 37° C. by the addition of glacial acetic acid to a final concentration of 3.6% (v/v).
Plates were read on a fluorometer with excitation and emission wavelengths set to 320 nm and 405 nm, respectively. Inhibition constants were obtained by nonlinear regression of the data using the equation (GraphPad Software, Inc., San Diego, Calif.): v=v0/[1+(I/K′)] where v is the reaction rate, v0 is the uninhibited reaction rate, I is the inhibitor concentration and K′ is the apparent inhibition constant.
Compounds of the invention were tested in this assay and found to have pKi values at human NEP as follows.
On to `O=C(O)C[C@@H](Cc1ccccc1Cl)NC(=O)c1cc(F)c2[nH]nnc2c1` [Example 7-6, (R)-4-(2-Chloro-phenyl)-3-[(7-fluoro-1H-benzotriazole-5-carbonyl)-amino]-butyric acid], for which the Ki is 12.6 to 100 nM.

For the molecule `O=C(N[C@H](Cc1ccccc1Cl)[C@@H](O)C(=O)O)c1cc(-c2ccccc2Cl)no1` [Example 2-12, (2R,3R)-4-(2-Chloro-phenyl)-3-{[3-(2-chloro-phenyl)-isoxazole-5-carbonyl]-amino}-2-hydroxy-butyric acid], the Ki is 1.26 to 10 nM.

In the case of `CCCc1nc2c(C)cc(C(=O)N[C@H](Cc3ccccc3)[C@@H](O)C(=O)O)cc2n1Cc1cccnc1` [Example 5-3, (2R,3R)-2-Hydroxy-3-[(7-methyl-2-propyl-3-pyridin-3-ylmethyl-3H-benzoimidazole-5-carbonyl)-amino]-4-phenyl-butyric acid], the Ki was 12.6 to 100 nM.

As for `O=C(N[C@H](Cc1ccccc1Cl)[C@@H](O)C(=O)O)c1cc(-c2ccccc2Cl)on1` [Example 2-15, (2R,3R)-4-(2-Chloro-phenyl)-3-{[5-(2-chloro-phenyl)-isoxazole-3-carbonyl]-amino}-2-hydroxy-butyric acid], the Ki was 1.26 to 10 nM.

As for `O=C(O)C[C@@H](Cc1ccccc1Cl)NC(=O)c1cc(-c2ccccc2C(=O)O)ccn1` [Example 6, 2-{2-[(R)-1-Carboxymethyl-2-(2-chloro-phenyl)-ethylcarbamoyl]-pyridin-4-yl}-benzoic Acid], the Ki is 1.26 to 10 nM.

With `O=C(N[C@H](Cc1ccccc1Cl)[C@@H](O)C(=O)O)c1cn(Cc2ccccc2)nn1` [Example 2-20, (2R,3R)-3-[(1-Benzyl-1H-[1,2,3]triazole-4-carbonyl)-amino]-4-(2-chloro-phenyl)-2-hydroxy-butyric acid], the Ki is 12.6 to 100 nM.

With `O=C(N[C@H](Cc1ccccc1)[C@@H](O)C(=O)O)c1cncc(-c2ccccc2C(=O)O)c1` [Example 5-25, 2-[5-((1R,2R)-1-Benzyl-2-carboxy-2-hydroxy-ethylcarbamoyl)-pyridin-3-yl]-benzoic acid], the Ki was 1.26 to 10 nM.

Regarding `O=C(N[C@H](Cc1ccccc1Cl)[C@H](O)C(=O)O)c1cnn[nH]1` [Example 2-19, (2S,3R)-4-(2-Chloro-phenyl)-2-hydroxy-3-[(3H-[1,2,3]triazole-4-carbonyl)-amino]-butyric acid], the Ki is 12.6 to 100 nM.

`O=C(N[C@H](Cc1ccccc1Cl)[C@@H](O)C(=O)O)c1cn(O)nn1` [Example 2-21, (2R,3R)-4-(2-Chloro-phenyl)-2-hydroxy-3-[(1-hydroxy-1H-[1,2,3]triazole-4-carbonyl)-amino]-butyric acid]: the Ki was 12.6 to 100 nM.

As for `O=C(N[C@H](Cc1ccccc1)[C@@H](O)C(=O)O)c1ccc(-c2ccccc2C(=O)O)cn1` [Example 5-24, 2-[6-((1R,2R)-1-Benzyl-2-carboxy-2-hydroxy-ethylcarbamoyl)-pyridin-3-yl]-benzoic acid], the inhibition constant (Ki) was 12.6 to 100 nM.

As to `O=C(O)C[C@@H](Cc1ccccc1Cl)NC(=O)c1cc(Cl)c2nn[nH]c2c1` [Example 7-4, (R)-3-[(7-Chloro-3H-benzotriazole-5-carbonyl)-amino]-4-(2-chloro-phenyl)-butyric acid], the Ki is 12.6 to 100 nM.

As for `O=C(N[C@H](Cc1ccccc1)[C@@H](O)C(=O)O)c1cc(Cl)c2nn[nH]c2c1` [Example 5-13, (2R,3R)-3-[(7-Chloro-3H-benzotriazole-5-carbonyl)-amino]-2-hydroxy-4-phenyl-butyric acid], the Ki was 12.6 to 100 nM.

On to `O=C(O)C[C@@H](Cc1ccccc1Cl)NC(=O)c1ccc2nn[nH]c2c1` [Example 7-3, (R)-3-[(3H-Benzotriazole-5-carbonyl)-amino]-4-(2-chloro-phenyl)-butyric acid], for which the Ki was 12.6 to 100 nM.

As for `O=C(N[C@H](Cc1ccccc1Cl)[C@H](O)C(=O)O)c1ccc2nn[nH]c2c1` [Example 2-29, (2S,3R)-3-[(3H-Benzotriazole-5-carbonyl)-amino]-4-(2-chloro-phenyl)-2-hydroxy-butyric acid], the Ki is 12.6 to 100 nM.

Consider `O=C(N[C@H](Cc1ccccc1C(F)(F)F)[C@@H](O)C(=O)O)c1cnc2[nH]nnc2c1` [Example 3, (2R,3R)-2-Hydroxy-3-[(3H-[1,2,3]triazolo[4,5-b]pyridine-6-carbonyl)-amino]-4-(2-trifluoromethyl-phenyl)-butyric acid], for which the Ki was 1.26 to 10 nM.

Consider `O=C(N[C@H](Cc1ccccc1Cl)[C@@H](O)C(=O)O)c1cnc(O)c(-c2ccccc2C(=O)O)c1` [Example 2-7, 2-{5-[(1R,2R)-2-Carboxy-1-(2-chloro-benzyl)-2-hydroxy-ethylcarbamoyl]-2-hydroxy-pyridin-3-yl}-benzoic acid], for which the Ki was at most 1 nM.

`O=C(O)c1ccc(C(=O)N[C@H](Cc2ccccc2Cl)[C@@H](O)C(=O)O)o1` [Example 2-32, 5-[(1R,2R)-2-Carboxy-1-(2-chloro-benzyl)-2-hydroxy-ethylcarbamoyl]-furan-2-carboxylic acid]: the Ki was 12.6 to 100 nM.

As to `O=C(O)c1cnc(C(=O)N[C@H](Cc2ccccc2)[C@@H](O)C(=O)O)cn1` [Example 5-18, 5-((1R,2R)-1-Benzyl-2-carboxy-2-hydroxy-ethylcarbamoyl)-pyrazine-2-carboxylic acid], the Ki was 12.6 to 100 nM.

`O=C(N[C@H](Cc1ccccc1Cl)[C@@H](O)C(=O)O)c1cc(C(=O)O)c2[nH]nnc2c1` [Example 2-31, 6-[(1R,2R)-2-Carboxy-1-(2-chloro-benzyl)-2-hydroxy-ethylcarbamoyl]-3H-benzotriazole-4-carboxylic acid]: the Ki is 12.6 to 100 nM.

`Cc1nc(C(=O)N[C@H](Cc2ccccc2Cl)[C@@H](O)C(=O)O)nn1-c1ccc(Cl)cc1` [Example 2-22, (2R,3R)-4-(2-Chloro-phenyl)-3-{[1-(4-chloro-phenyl)-5-methyl-1H-[1,2,4]triazole-3-carbonyl]-amino}-2-hydroxy-butyric acid]: the Ki was 12.6 to 100 nM.

`O=C(N[C@H](Cc1ccccc1)[C@@H](O)C(=O)O)c1ccc2c(c1)N1CCCC1C(=O)N2` (stereo partly drawn) [Example 5-1, (2R,3R)-2-Hydroxy-3-[(4-oxo-1,2,3,3a,4,5-hexahydro-pyrrolo[1,2-a]quinoxaline-8-carbonyl)-amino]-4-phenyl-butyric acid]: the Ki is 12.6 to 100 nM.

For the molecule `O=C(N[C@H](Cc1ccccc1Cl)[C@H](O)C(=O)O)c1cc(F)c2nn[nH]c2c1` [Example 2-27, (2S,3R)-4-(2-Chloro-phenyl)-3-[(7-fluoro-3H-benzotriazole-5-carbonyl)-amino]-2-hydroxy-butyric acid], the Ki is 1.26 to 10 nM.

In the case of `O=C(N[C@H](Cc1ccccc1Cl)[C@@H](O)C(=O)O)c1cc2n(n1)COc1ccccc1-2` [Example 2-24, (2R,3R)-4-(2-Chloro-phenyl)-2-hydroxy-3-[(5-oxa-3,3a-diazacyclopenta[a]naphthalene-2-carbonyl)-amino]-butyric acid], the Ki was 1.26 to 10 nM.

With `O=C(N[C@H](Cc1ccccc1Cl)[C@@H](O)C(=O)O)c1cnc(O)cn1` [Example 2-34, (2R,3R)-4-(2-Chloro-phenyl)-2-hydroxy-3-[(5-hydroxy-pyrazine-2-carbonyl)-amino]-butyric acid], the Ki is 12.6 to 100 nM.

For the molecule `O=C(N[C@H](Cc1ccccc1)[C@@H](O)C(=O)O)c1ccnc(-c2ccccc2C(=O)O)c1` [Example 5-22, 2-[4-((1R,2R)-1-Benzyl-2-carboxy-2-hydroxy-ethylcarbamoyl)-pyridin-2-yl]-benzoic acid], the Ki was 1.26 to 10 nM.

Take `O=C(N[C@H](Cc1ccccc1Cl)[C@@H](O)C(=O)O)c1cnc2[nH]cnc2c1` [Example 2-36, (2R,3R)-4-(2-Chloro-phenyl)-2-hydroxy-3-[(3H-imidazo[4,5-b]pyridine-6-carbonyl)-amino]-butyric acid]: the Ki was 12.6 to 100 nM.
